Data taken from publication PMC7866395, “A Pipeline towards the Biochemical Characterization of the Arabidopsis GT14 Family” (International Journal of Molecular Sciences, 2021).

Experiments:
Format in all cases: biochemical
[1] = molecular target: T1, AT4G27480 (248) (Arabidopsis thaliana, UniProt F4JIW2); assay: glucuronosyltransferase assay, RP-HPLC with fluorescence detection; settings: donor 0.4 mM; acceptor 5 uM β-Gal-NBD, β-1,6-Gal4-AA or β-1,3-Gal5-AA; 25 °C, 2 h; microsomes
T1 construct: full-length CDS, C-terminal YFP and HA tags (pEarleyGate 101), transient expression in Nicotiana benthamiana, Triton X-100 treated microsomal membranes, about 75 kDa fusion

[2] = molecular target: T2, AT3G15350 (245, AtGlcAT14E) (Arabidopsis thaliana, UniProt Q9LE60); assay: glucuronosyltransferase assay, RP-HPLC fluorescence and LC-ESI-MS of products; settings: donor 0.4 mM; acceptor 5 uM β-1,3-Gal5-AA; 25 °C, 2 h; microsomes
T2 construct: full-length CDS, C-terminal YFP and HA tags (pEarleyGate 101), transient expression in Nicotiana benthamiana, Triton X-100 treated microsomal membranes, about 75 kDa fusion
T2 sequence (Q9LE60 1-424): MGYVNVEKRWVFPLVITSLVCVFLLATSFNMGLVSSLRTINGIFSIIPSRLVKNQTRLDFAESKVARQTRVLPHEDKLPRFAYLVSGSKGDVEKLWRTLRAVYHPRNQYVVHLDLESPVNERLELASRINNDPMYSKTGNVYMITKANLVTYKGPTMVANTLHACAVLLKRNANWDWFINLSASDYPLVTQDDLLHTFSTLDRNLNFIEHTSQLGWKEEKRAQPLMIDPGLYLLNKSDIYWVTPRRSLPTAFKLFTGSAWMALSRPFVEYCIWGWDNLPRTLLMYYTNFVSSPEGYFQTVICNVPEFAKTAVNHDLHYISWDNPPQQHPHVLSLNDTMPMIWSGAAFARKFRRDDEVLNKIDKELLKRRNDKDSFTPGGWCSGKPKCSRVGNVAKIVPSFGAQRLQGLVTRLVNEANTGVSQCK

[3] = molecular target: T3, AT5G15050 (249, AtGlcAT14B) (Arabidopsis thaliana, UniProt Q9LFQ0); assay: glucuronosyltransferase assay, RP-HPLC with fluorescence detection; settings: donor 0.4 mM; acceptor 5 uM β-Gal-NBD, β-1,6-Gal4-AA or β-1,3-Gal5-AA; 25 °C, 2 h; microsomes
T3 construct: gene GLCAT14B; full-length CDS, C-terminal YFP and HA tags (pEarleyGate 101), transient expression in Nicotiana benthamiana, Triton X-100 treated microsomal membranes, about 75 kDa fusion
T3 sequence (Q9LFQ0 1-434): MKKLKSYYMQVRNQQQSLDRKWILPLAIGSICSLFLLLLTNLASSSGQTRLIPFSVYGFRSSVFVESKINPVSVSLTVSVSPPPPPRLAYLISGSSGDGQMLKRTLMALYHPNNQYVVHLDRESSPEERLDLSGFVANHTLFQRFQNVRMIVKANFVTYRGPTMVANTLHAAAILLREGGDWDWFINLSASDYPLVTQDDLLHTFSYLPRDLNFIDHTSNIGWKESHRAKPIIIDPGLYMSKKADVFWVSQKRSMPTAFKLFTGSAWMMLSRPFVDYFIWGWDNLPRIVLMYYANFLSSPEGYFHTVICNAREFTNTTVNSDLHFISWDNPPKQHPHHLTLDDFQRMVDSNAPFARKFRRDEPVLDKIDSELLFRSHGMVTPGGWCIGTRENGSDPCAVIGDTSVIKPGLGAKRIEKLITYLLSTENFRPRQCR

T1 sequence (F4JIW2 1-421): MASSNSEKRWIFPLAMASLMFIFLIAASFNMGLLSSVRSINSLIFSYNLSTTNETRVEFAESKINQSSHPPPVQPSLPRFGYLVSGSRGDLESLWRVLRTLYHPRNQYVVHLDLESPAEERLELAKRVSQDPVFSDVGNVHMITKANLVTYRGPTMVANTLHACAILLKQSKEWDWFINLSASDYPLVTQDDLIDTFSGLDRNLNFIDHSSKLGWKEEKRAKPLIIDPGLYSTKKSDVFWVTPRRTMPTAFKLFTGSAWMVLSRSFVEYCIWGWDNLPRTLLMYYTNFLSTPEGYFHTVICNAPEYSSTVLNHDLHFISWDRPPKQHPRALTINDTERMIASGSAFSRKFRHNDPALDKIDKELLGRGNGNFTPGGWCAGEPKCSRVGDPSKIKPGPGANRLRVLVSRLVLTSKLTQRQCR

SMILES: O=C(O)[C@H]1O[C@H](OP(=O)(O)OP(=O)(O)OC[C@H]2O[C@@H](n3ccc(=O)[nH]c3=O)[C@H](O)[C@@H]2O)[C@H](O)[C@@H](O)[C@@H]1O [UDP-GlcA]
- glucuronosyltransferase assay, RP-HPLC with fluorescence detection [1]: AT4G27480 show the GlcAT activity using the three different acceptors
- glucuronosyltransferase assay, RP-HPLC fluorescence and LC-ESI-MS of products [2]: However, only UDP-GlcA was an active substrate donor
- glucuronosyltransferase assay, RP-HPLC with fluorescence detection [3]: This result confirms that AtGlcAT14B and AtGlcAT14E have GlcAT activity
